The structures appear in SMILES notation.

Sequence of Sigma non-opioid intracellular receptor 1 (Homo sapiens, UniProt Q99720) (Q99720 whole entry): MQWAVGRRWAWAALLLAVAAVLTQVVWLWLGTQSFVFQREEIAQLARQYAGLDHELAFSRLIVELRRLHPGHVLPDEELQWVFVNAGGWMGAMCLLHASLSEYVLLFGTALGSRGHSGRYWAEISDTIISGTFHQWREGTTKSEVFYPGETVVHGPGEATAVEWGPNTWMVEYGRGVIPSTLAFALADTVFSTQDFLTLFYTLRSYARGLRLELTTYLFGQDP

One assay addresses Sigma non-opioid intracellular receptor 1 (Homo sapiens, UniProt Q99720). Briefly: Binding affinity to sigma-1 receptor (unknown origin).
`c1ccc(N2CCN(CCC3OCCc4c3cnn4-c3ccccc3)CC2)cc1` (stereo not given) gave an inhibition constant (Ki) of 2.9 nM.
With `CN(C)CCC1OCCc2c1cnn2-c1ccccc1` (stereo not given), the Ki amounted to 24 nM.

Target in another assay: not listed separately
Description: Displacement of [3H]-di-o-tolylguanidine from sigma-2 receptor in rat liver membranes after 120 mins by scintillation counting analysis. In kind it is cell membranes, Membrane.
Take `c1ccc(CCN2CCC3(CCCc4sccc43)CC2)cc1`: the inhibition constant (Ki) was 105 nM.
Same read-out and setting: the same measure for `c1ccc(CCCN2CCC3(CCCc4sccc43)CC2)cc1`: 186 nM; for `c1ccc(CN2CCC3(CCCc4sccc43)CC2)cc1`: 172 nM.
Still for that read-out and setting: the same measure for `CCCCN1CCC2(CCCc3sccc32)CC1`: 48 nM; for `c1cc2c(s1)CCCC21CCN(CC2CCCCC2)CC1`: 23 nM.
On the same count and under the same terms, under `c1ccc(CN2CCC3(CCCc4sccc43)C2)cc1` (stereo not given) stands 130 nM.

The target of a further assay is Sigma non-opioid intracellular receptor 1 (Cavia porcellus, UniProt Q60492). Briefly: Displacement of [3H]-(+)-pentazocine from sigma-1 receptor in guinea pig brain cortex after 120 mins by scintillation counting analysis. The format is tissue-based, Cerebral cortex.
Sequence of Sigma non-opioid intracellular receptor 1 (Cavia porcellus, UniProt Q60492) (Q60492 whole entry): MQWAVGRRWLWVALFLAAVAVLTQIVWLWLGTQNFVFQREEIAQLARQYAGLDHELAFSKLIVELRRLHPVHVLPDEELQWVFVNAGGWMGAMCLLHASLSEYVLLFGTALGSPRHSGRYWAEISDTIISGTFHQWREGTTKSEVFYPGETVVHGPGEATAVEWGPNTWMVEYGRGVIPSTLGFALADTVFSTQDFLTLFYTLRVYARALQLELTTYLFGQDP
`c1ccc(CCN2CCC3(CCCc4sccc43)CC2)cc1` had an inhibition constant Ki of 277 nM.
`c1ccc(CCCN2CCC3(CCCc4sccc43)CC2)cc1`: the inhibition constant (Ki) was 46 nM.
The same measure, in the same setting: under `c1ccc(CN2CCC3(CCCc4sccc43)CC2)cc1` stands 10.5 nM; under `CCCCN1CCC2(CCCc3sccc32)CC1`, 6.3 nM.
Still for that read-out and setting: the same measure for `c1cc2c(s1)CCCC21CCN(CC2CCCCC2)CC1`: 4.3 nM; for `c1ccc(CN2CCC3(CCCc4sccc43)C2)cc1` (stereo not given): 29 nM.

Tested on in the next assay: not listed separately
Description: Selectivity ratio of Ki for rat liver membrane sigma-2 receptor to Ki for guinea pig brain cortex sigma-1 receptor.
On to `c1ccc(CCN2CCC3(CCCc4sccc43)CC2)cc1`, for which the Ratio Ki came to 0.4.
Turning to `c1ccc(CCCN2CCC3(CCCc4sccc43)CC2)cc1`, the Ratio Ki worked out at 4.
Consider `c1ccc(CN2CCC3(CCCc4sccc43)CC2)cc1`, for which the Ratio Ki amounted to 16.
Same read-out and setting: the same measure for `CCCCN1CCC2(CCCc3sccc32)CC1`: 8; for `c1cc2c(s1)CCCC21CCN(CC2CCCCC2)CC1`: 5; for `c1ccc(CN2CCC3(CCCc4sccc43)C2)cc1` (stereo not given): 4.

These data come from ChEMBL document CHEMBL3217589, “Spiro[[1]benzothiophen-4,4-piperidines] carba analogs of potent 1 ligands” (Medchemcomm, 2013).
